Measured values reported in PMC10499737 (Inflammation Research, 2023).
Where two headings read alike, the source gives them in different places. Each block holds one molecule with its values, some of them ahead of it.

What was measured:
[1] = design: method as in PMID 28800383; conditions: Phase 1 study; cited from earlier work
[2] = system: NE activity in mouse BALF neutrophils; assay: In vivo LPS-challenge model: NE activity in BALF neutrophil lysate; conditions: 11-day dosing
Procedure: In the first—a 2-day treatment holiday regimen—mice were treated with 0.005, 0.05, 0.5 or 5 mg/kg BI 1291583, or vehicle, twice daily by oral gavage on Days 1‒5, 8 and 9. On Day 10, a final dose of BI 1291583 or vehicle was given followed by challenge with nebulised E. coli lipopolysaccharide (LPS) to induce neutrophil influx into the lungs. In the second dosing regimen, mice were treated with 0.00005, 0.0001, 0.001, 0.01, 0.03, 0.1, 0.5 or 5 mg/kg BI 1291583, or vehicle, once daily by oral gavage for 11 consecutive days. On Day 12, a final dose of BI 1291583 or vehicle was given followed by LPS challenge.
Four and a half hours after LPS challenge, lung neutrophils were harvested by lavage via tracheal cannula, and neutrophil count measured. Bronchoalveolar lavage fluid (BALF) samples were then centrifuged and cell pellets lysed with volume of lysis buffer normalised to neutrophil count. NE, CatG and PR3 activity were determined by conversion of a fluorescent substrate measured over time with a SpectramaxM5 fluorescence reader at 360 nm excitation wavelength and 460 nm emission wavelength. Fluorescence values were normalised to neutrophil count, and mean NE, CatG and PR3 activity from BI 1291583-treated animals was calculated relative to the mean of LPS/vehicle-treated control animals. CatG and PR3 activity was measured in pooled samples from each dose group. For the 11-day dosing experiments, the dose of BI 1291583 that inhibited 50% of NE activity (ED50) was calculated using GraphPad Prism software (version 9.5.0 for Windows, GraphPad Software, www.graphpad.com) with a non-linear regression curve fit. […] A one-way analysis of variance with Dunnett’s multiple comparisons test analysis was performed to determine statistical significance.
The inhibitory activity of INS1007 on the production of active NE, and distribution of INS1007 to bone marrow and plasma was investigated under the same conditions as the 11-day dosing regimen (see Methods, Additional File 1).
(§1) The animals were treated with BI 1291583 (0.005, 0.05, 0.5 and 5 mg/kg) or vehicle twice daily on Days 1‒5, 8 and 9. BI 1291583 or vehicle was applied orally by gavage (10 ml/kg body weight). On Day 10, animals were treated with BI 1291583 or vehicle followed by an LPS inhalation challenge.
as §1, with “(0.00005, 0.0001, 0.001, 0.01, 0.03, 0.1, 0.5,” for “(0.005, 0.05, 0.5 and”, “once” for “twice”, “for 11 consecutive days.” for “on Days 1‒5, 8 and 9.”, “12,” for “10,”
To induce neutrophil influx into the lungs, animals were challenged with an LPS inhalation at Day 12 of this study. LPS from E.coli (serotype 055:B5) was used (SigmaAldrich #L2880). […]
The trachea was cannulated and a lavage was performed using 2x1 ml lavage buffer (HBSS [HyClone, # Sh30588,01] with 10 U/ml heparin). Cell count in the lavage fluid and cell differentiation were determined using a haemocytometer (Sysmex XT-200i), following the supplier’s instructions.
For enzymatic NE measurement, the lavage cells were separated from two 500 µl aliquots of lavage fluid by centrifugation (1500rpm, 4°C, 15min), the supernatants were removed and the pellets were stored at -80°C for further analyses. For enzymatic proteinase 3 (PR3) and Cat G measurement, the remaining lavage samples from all animals of each dose group were pooled and cell count and cell differentiation were determined as described above. […]

[3] = system: production of active NE in U937 cells; assay: Inhibition of the production of active NE in a neutrophil progenitor cell line; type: cell-based; conditions: Homo sapiens, U-937, 48 h incubation
Source text: The inhibitory activity of BI 1291583 on the production of active NE was investigated in duplicate experiments in the human myeloid cell line U937. U937 cells were used as they constitutively express and process NE. Additionally, a myeloid cell line was used rather than primary neutrophils as CatC activates NSPs in the bone marrow during myelopoiesis and no further activation occurs once the neutrophils have entered the bloodstream; as such, the effect of CatC inhibition cannot be investigated in primary neutrophils. BI 1291583 was added to cell suspensions at a final concentration of 0.064, 0.32, 1.6, 8, 40, 200 and 1000 nM. Cells were then incubated for 48 h. Cell viability was then measured in duplicate experiments using the CellTiter-Glo® Luminescent Cell Viability Assay according to manufacturer’s instructions. For measurement of NE activity, cells were separated by centrifugation, lysed and debris removed. NE activity was measured by conversion of a fluorescent substrate. Increase in fluorescence was measured over time with a SpectramaxM5 fluorescence reader at 360 nm excitation wavelength and 460 nm emission wavelength. The reaction rate when CatC is fully saturated by BI 1291583 was used as primary readout to calculate NE activity. Percentage inhibition of NE activity in lysates treated with BI 1291583 was calculated relative to the mean of the vehicle-only control. […]

[4] = Bone marrow and plasma exposure after repeated oral dosing (LC-MS/MS); type: in vivo; conditions: Crl:NMRI, mouse, 11-day dosing; for Kp at 5 h: bone marrow/plasma, 5 h after final dose, read-out: bone marrow-to-plasma exposure ratio
Procedure: At 5 h after final BI 1291583 administration, animals were euthanised by Narcoren application (400–600 mg/kg intraperitoneally). For assessment of BI 1291583 exposure in plasma, five drops of retrobulbar blood were taken. The femur was prepared by extraction, shock frozen in liquid nitrogen and stored at − 20 °C until bone marrow preparation. For preparation of bone marrow, epiphysis severed off and bone marrow extracted from the diaphysis. Exposure was measured via liquid chromatography–tandem mass spectrometry. […]

[5] = system: patients with bronchiectasis; conditions: 10 mg or 25 mg once daily, 24 weeks; cited from earlier work
healthy volunteers = system: healthy volunteers; design: method as in PMID 29484635; conditions: once daily up to 40 mg for up to 28 days; cited from earlier work

Compound: CC[C@@H](/C=C/C(=O)N1CCc2ccccc21)NC(=O)C1(N)CCOCC1 [GSK2793660]
inhibition of downstream NSPs [1]: insufficient inhibition of downstream NSPs
skin events [1]: marked skin desquamation events

IC50 [3]: 64 nM
concentration at 5 h ([4]; bone marrow, 0.1 mg/kg, 5 h after final dose on Day 12, read-out: exposure in bone marrow, mean (SEM)): 143 nM
concentration at 5 h ([4]; bone marrow, 0.5 mg/kg, 5 h after final dose on Day 12, read-out: exposure in bone marrow, mean (SEM)): 321 nM
concentration at 5 h ([4]; bone marrow, 5 mg/kg, 5 h after final dose on Day 12, read-out: exposure in bone marrow, mean (SEM)): 1690 nM
Kp at 5 h ([4]; 0.1 mg/kg, 0.1 mg/kg): 24
Kp at 5 h ([4]; 0.5 mg/kg, 0.5 mg/kg): 8
Kp at 5 h ([4]; 5 mg/kg, 5 mg/kg): 2
concentration at 5 h ([4]; plasma, 0.1 mg/kg, 5 h after final dose on Day 12, read-out: exposure in plasma, mean (SEM)): 6 nM
concentration at 5 h ([4]; plasma, 0.5 mg/kg, 5 h after final dose on Day 12, read-out: exposure in plasma, mean (SEM)): 40 nM
concentration at 5 h ([4]; plasma, 5 mg/kg, 5 h after final dose on Day 12, read-out: exposure in plasma, mean (SEM)): 710 nM
Compound: Cn1c(=O)oc2ccc(-c3ccc(C[C@@H](C#N)NC(=O)[C@@H]4CNCCCO4)cc3)cc21 [INS1007]
inhibition of production of active NE compared with vehicle/LPS control ([2]; 0.1 mg/kg once daily oral): no inhibition
inhibition at 30 mg/kg ([2]; Mus musculus, Neutrophil, 264 h, at 30 mg/kg (range 0.3-50 mg/kg), p<0.001, read-out: maximum inhibition of production of active NE compared with LPS control): 76%
inhibition at 0.5 mg/kg ([2]; Mus musculus, Neutrophil, po, 264 h, 0.5 mg/kg once daily oral, read-out: inhibition of production of active NE compared with vehicle/LPS control): 19%
inhibition at 5 mg/kg ([2]; Mus musculus, Neutrophil, po, 264 h, 5 mg/kg once daily oral, read-out: inhibition of production of active NE compared with vehicle/LPS control): 75%
ED50 ([2]; Neutrophil, 264 h, once daily oral, read-out: ED50 for NE inhibition): 1.4 mg/kg

Compound: Cn1c(=O)oc2ccc(-c3ccc(C[C@@H](C#N)NC(=O)[C@@H]4CNCCCO4)cc3)cc21 [brensocatib]
annualised rates of exacerbations and number of severe exacerbations compared with placebo [5]: lower
incidence of hyperkeratosis compared with the placebo group [5]: higher
risk of exacerbation over the treatment period compared with placebo [5]: lower
time to first exacerbation compared with placebo [5]: significantly increased
NE activity (healthy volunteers): Exposure-related reduction
safety profile (healthy volunteers): generally well-tolerated
skin findings (healthy volunteers): several dose-dependent, possibly CatC-related non-serious skin findings (exfoliation and hyperkeratosis)
